{"source": "paper PMC6481325", "about": "“Novel N,N-dialkyl cyanocinnamic acids as monocarboxylate transporter 1 and 4 inhibitors” (Oncotarget, 2019)", "key": {"[1]": {"tested_on": "MDA-MB-231 tumor xenograft", "test": "Tumor growth inhibition, MDA-MB-231 xenograft model", "format": "in vivo", "details": "SCID mice", "experimental": "Figure 6 In vivo xenograft studies in WiDr and MDA-MB-231 tumor models (A) WiDr tumor xenograft study of compound 3 and compound 9. Mice (n = 8) were treated with 8 mg/kg of compound 3, intraperitoneally, two times a day. (B) Tumor growth inhibition study with compound 9 in MDA-MB-231 tumor xenograft model (n = 6). Mice were treated with compound 9 (70 mg/kg, ip, bid until day-4; qd from day-5), a combination of 9 and doxorubicin (0.5 mg/kg, ip, five days a week), and doxorubicin. (C) Tumor growth inhibition based on isolated tumor mass. ^*P < 0.05, ^**P < 0.01, ^***P < 0.001, ^****P < 0.0001. Schematic representation of (D) untreated tumor cells and (E) inhibition of MCT1 and MCT4 and decreased glycolysis and mitochondrial OxPhos in compound 9 treated tumor cells. Upward hollowed arrow indicates “increase” in function/amount and downward hollowed arrow indicates “decrease” in function/amount.\nGroup-1 was administered with compound 9, group-2 was given a combination of compound 9 and clinical breast cancer drug doxorubicin (AKSci catalog # E518), and group-3 was treated with doxorubicin alone. Group-4 was assigned as a control group and treated with vehicle (10% DMSO in saline). The treatment was continued up to 18 days and on day 20, the mice were euthanized and tumor masses isolated and weighed. […] Due to these reasons, higher dosages of compound 9 were required to produce significant anticancer efficacy in vivo. In all these studies, <20% of body weight loss was observed.\nTumor cells suspended in 1:1 matrigel-PBS were injected on right flank of female SCID mice (n = 6 mice/group, 10^7 MDA-MB-231 cells) or right flank of female athymic nude mice (n = 8 mice/group, 5 × 10^6 WiDr cells). Tumors were measured using calipers every 2–3 days and tumor volumes were calculated using the formula V = ab^2/2 where ‘a’ is the long diameter of the tumor and ‘b’ is the short diameter of the tumor. Tumor growth inhibition was determined using the formula % inhibition = [(C – T)/C] × 100 where C is average tumor weight of the control group and T is the average tumor weight of the test group."}, "[2]": {"tested_on": "MCT1 expressing WiDr cells", "test": "Seahorse XFe96 mitochondrial stress test (OCR), WiDr", "format": "cell-based", "details": "30 μM", "experimental": "(§1) Extracellular acidification rates (ECAR) and oxygen consumption rates (OCR) were recorded in real-time for glycolysis stress test (GST) and mitochondrial stress test (MST), respectively, using Agilent Seahorse XFe96® analyzer."}, "MDA-MB-231 cells": {"tested_on": "MDA-MB-231 cells", "test": "SRB cell proliferation inhibition assay, MDA-MB-231", "format": "cell-based", "details": "72 hours, average ± sem", "experimental": "(§2) MDA-MB-231 cells (ATCC, 2015) were grown in DMEM supplemented with 10% FBS and penicillin-streptomycin (50 U/ml, 50 μg/ml, Invitrogen). WiDr cells (ATCC, 2017) were cultured in MEM medium supplemented with 10% FBS (Atlanta Biologicals) and penicillin-streptomycin (50 U/ml, 50 μg/ml). For in vitro experiments, after seeding, cells were incubated at 37°C in 5% CO2 for 18–24 hours before the addition of test compounds.\n(§3) Cells (5 × 10^4 cells/mL) were cultured in 48-well plates. Test compounds were dissolved in DMSO (final concentration of DMSO is <0.1%) and were added to culture wells at various concentrations in replicate and incubated for 72 hours. Growth medium was removed and the wells were washed with PBS and dried. SRB (0.5% in 1% acetic acid) was added to the wells and incubated for 30–45 minutes. The wells were washed 3 times with 1% acetic acid and dried. The cellular protein was dissolved in trizma base (10 mM, pH 10.2) and absorbance was recorded at 540 nm. Percent survival was calculated using the formula %Survival=Abstest compound/Abscontrol×100 ."}, "WiDr cells": {"tested_on": "WiDr cells", "test": "SRB cell proliferation inhibition assay, WiDr", "format": "cell-based", "details": "Homo sapiens, 72 hours, average ± sem", "experimental": "as §2, §3"}, "[3]": {"tested_on": "MCT4 expressing MDA-MB-231 cells", "test": "Seahorse XFe96 mitochondrial stress test (OCR), MDA-MB-231", "format": "cell-based", "details": "30 μM", "experimental": "as §1"}, "[4]": {"tested_on": "MCT4 expressing MDA-MB-231 cells", "test": "Seahorse XFe96 glycolysis stress test (ECAR), MDA-MB-231", "format": "cell-based", "details": "30 μM", "experimental": "In the GST, three parameters namely glycolysis, glycolytic capacity and glycolytic reserve were measured.\nas §1"}, "WiDr tumor xenograft": {"tested_on": "WiDr tumor xenograft", "set-up": "method as in ref 32, 33 = [32]; PMID 26005533; doi:10.1021/acsmedchemlett.5b00049; 32 Gurrapu S Jonnalagadda SK Alam MA Nelson GL Sneve MG Drewes LR Mereddy VR Monocarboxylate transporter 1 inhibitors as potential anticancer agents ACS Med Chem Lett 2015 6 558 61 10.1021/acsmedcheml || [33]; 33 Mereddy VR Drewes LR Alam MA Jonnalagadda SK Gurrapu S Therapeutic Compounds US 9296728B2 United States Patent and Trademark Office 2016 https://app.dimensions.ai/details/patent/US-9296728-B2", "details": "mice, three weeks; cited from earlier work"}}}
{"smiles": "COc1cc(N(c2ccccc2)c2ccccc2)ccc1/C=C(\\C#N)C(=O)O", "note": "[Phenyl (9)]", "values": [{"measurement": "tumor growth inhibition based on tumor volume", "setting": "[1]; 9 70 mg/kg ip bid until day-4, qd from day-5, doxorubicin 0.5 mg/kg ip five days a week, treatment up to 18 days", "result": 58, "unit": "%"}, {"measurement": "tumor growth inhibition based on isolated tumor weights", "setting": "[1]; same regimens, tumors isolated on day 20", "result": 56, "unit": "%"}, {"measurement": "ATP production (MST, OCR)", "setting": "[2]", "result": "significantly decreased"}, {"measurement": "maximal respiration (MST, OCR)", "setting": "[2]", "result": "significantly decreased"}, {"measurement": "proton leak (MST, OCR)", "setting": "[2]", "result": "significantly increased proton leak compared to compound 3"}, {"measurement": "spare respiratory capacity (MST, OCR)", "setting": "[2]", "result": "significantly decreased"}, {"measurement": "SRB IC50", "setting": "MDA-MB-231 cells", "result": "did not show any activity"}, {"measurement": "IC50", "setting": "MDA-MB-231 cells; Homo sapiens", "result": "> 25", "unit": "µM"}, {"measurement": "IC50", "setting": "WiDr cells", "result": "4.2 ± 0.4", "unit": "µM"}, {"measurement": "ATP production (MST, OCR)", "setting": "[3]", "result": "significantly decreased"}, {"measurement": "maximal respiration (MST, OCR)", "setting": "[3]", "result": "significantly decreased"}, {"measurement": "proton leak (MST, OCR)", "setting": "[3]", "result": "significantly increased"}, {"measurement": "spare respiratory capacity (MST, OCR)", "setting": "[3]", "result": "significantly decreased"}, {"measurement": "glycolytic capacity (GST, ECAR)", "setting": "[4]", "result": "decreased"}, {"measurement": "glycolytic reserve (GST, ECAR)", "setting": "[4]", "result": "completely arrested"}, {"measurement": "tumor growth reduction", "setting": "WiDr tumor xenograft", "result": 33, "unit": "%"}]}
